According to patent publication US11976057B2, “MrgX2 antagonists” (GlaxoSmithKline Intellectual Property Development Limited, priority 2020, dated 2024):

Target: T1, human MRGPRX2 (Homo sapiens, UniProt Q96LB1)
T1 sequence (Q96LB1 1-330): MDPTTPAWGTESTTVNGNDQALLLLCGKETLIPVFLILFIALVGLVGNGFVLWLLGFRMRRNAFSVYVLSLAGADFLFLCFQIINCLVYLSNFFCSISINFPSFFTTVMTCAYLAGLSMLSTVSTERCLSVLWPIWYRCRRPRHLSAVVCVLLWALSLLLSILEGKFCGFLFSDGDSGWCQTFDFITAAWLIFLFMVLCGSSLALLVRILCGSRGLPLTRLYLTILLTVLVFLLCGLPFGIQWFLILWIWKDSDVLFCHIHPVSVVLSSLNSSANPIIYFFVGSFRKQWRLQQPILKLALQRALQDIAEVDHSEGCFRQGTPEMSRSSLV
Experiment: Ca2+ mobilization assay (FLIPR TETRA): inhibition of Cortistatin-14 mediated MRGPRX2 activation

Row | IC50 | Structure (SMILES)
1 | 0.01 to 0.1 µM | C[C@@H](C(=O)Nc1ccc(OCC2CC2)cn1)N1CCC(F)(F)[C@@H](c2cc[n+]([O-])cc2)C1 [Example 111, 4-((S)-1-((S)-1-((5-(cyclopropylmethoxy)pyridin-2-yl)amino)-1-oxopropan-2-yl)-4,4-difluoropiperidin-3-yl)pyridine 1-oxide]
2 | 0.01 to 0.1 µM | C[C@@H](C(=O)Nc1ccc(Oc2ncccc2F)cn1)N1CCC(F)(F)[C@@H](c2ccc(=O)[nH]c2)C1 [Example 65, (S)-2-((S)-4,4-difluoro-3-(6-oxo-1,6-dihydropyridin-3-yl)piperidin-1-yl)-N-(5-((3-fluoropyridin-2-yl)oxy)pyridin-2-yl)propanamide]
3 | ≤ 0.01 µM | C[C@@H](C(=O)Nc1ccc(Oc2ccccc2)cn1)N1CCC(F)(F)[C@@H](c2ccc(=O)[nH]c2)C1 [Example 6, (S)-2-((S)-4,4-difluoro-3-(6-oxo-1,6-dihydropyridin-3-yl)piperidin-1-yl)-N-(5-phenoxypyridin-2-yl)propanamide]
4 | 0.1 to 3.16 µM | C[C@@H](C(=O)Nc1ncc(OCC2CC2)cc1F)N1CCC(F)(F)[C@@H](c2ccc(=O)[nH]c2)C1 [Example 28, (S)-N-(5-(cyclopropyl-methoxy)-3-fluoropyridin-2-yl)-2-((S)-4,4-difluoro-3-(6-oxo-1,6-dihydropyridin-3-yl)piperidin-1-yl)propanamide]
5 | 0.01 to 0.1 µM | C[C@@H](C(=O)Nc1ccc(Cc2ccncc2)cn1)N1CCC(F)(F)[C@@H](c2ccc(=O)[nH]c2)C1 [Example 13, (S)-2-((S)-4,4-difluoro-3-(6-oxo-1,6-dihydropyridin-3-yl)piperidin-1-yl)-N-(5-(pyridin-4-ylmethyl)pyridin-2-yl)propanamide]
6 | 0.01 to 0.1 µM | C[C@@H](C(=O)Nc1ccc(F)cn1)N1CCC(F)(F)[C@@H](c2c[nH]c(=O)c(N)n2)C1 [Example 106, (S)-2-((R)-3-(6-amino-5-oxo-4,5-dihydropyrazin-2-yl)-4,4-difluoropiperidin-l-y1)-N-(5-fluoropyridin-2-yl) propanamide]
7 | ≤ 0.01 µM | C[C@@H](C(=O)Nc1ccc(F)cn1)N1CCC(F)(F)[C@@H](c2ccc(=O)n(CC(F)(F)F)c2)C1 [Example 3, (S)-2-((S)-4,4-difluoro-3-(6-oxo-1-(2,2,2-trifluoroethyl)-1,6-dihydropyridin-3-yl)piperidin-1-yl)-N-(5-fluoropyridin-2-yl)propanamide]
8 | 0.01 to 0.1 µM | C[C@@H](C(=O)Nc1ccc(F)cn1)N1CCC(F)(F)[C@@H](c2cc(N)c(=O)[nH]n2)C1 [Example 143, (S)-2-((R)-3-(5-amino-6-oxo-1,6-dihydropyridazin-3-yl)-4,4-difluoropiperidin-1-yl)-N-(5-fluoropyridin-2-yl)propanamide]
9 | 0.1 to 3.16 µM | CC(C(=O)Nc1ccc(Cl)cn1)N1CCC(F)(F)C(c2c[nH]c(=O)c(CO)c2)C1 (stereo not drawn) [Example 155, N-(5-chloropyridin-2-yl)-2-(4,4-difluoro-3-(5-(hydroxymethyl)-6-oxo-1,6-dihydropyridin-3-yl)piperidin-1-yl)propanamide]
10 | 0.1 to 3.16 µM | C[C@@H](C(=O)Nc1ccc(OCC2CC2)nn1)N1CCC(F)(F)[C@@H](c2c[nH]c(=O)c(CN3CCOCC3)c2)C1 (single isomer, unassigned) [Example 225]
11 | 0.01 to 0.1 µM | CC(C(=O)Nc1ccc(F)cn1)N1CCC(F)(F)C(c2ccc(=O)n(Cc3ccccn3)c2)C1 (stereo not drawn) [Example 196, 2-(4,4-difluoro-3-(6-oxo-1-(pyridin-2-ylmethyl)-1,6-dihydropyridin-3-yl)piperidin-1-yl)-N-(5-fluoropyridin-2-yl)propanamide]
12 | ≤ 0.01 µM | C[C@@H](C(=O)Nc1ccc(Oc2ccc(F)cc2F)cn1)N1CCC(F)(F)[C@@H](c2cc[n+]([O-])c(C(N)=O)c2)C1 (single isomer, unassigned) [Example 258]
13 | 0.1 to 3.16 µM | CC(C(=O)Nc1ccc(OCC(F)F)cn1)N1CCC(F)(F)[C@@H](c2ccc(=O)[nH]c2)C1 (stereo partly drawn) [Example 49, 2-((S)-4,4-difluoro-3-(6-oxo-1,6-dihydropyridin-3-yl)piperidin-1-yl)-N-(5-(2,2-difluoroethoxy)pyridin-2-yl)propanamide]
14 | 0.01 to 0.1 µM | C[C@@H](C(=O)Nc1ccc(OC2CCCC2)cn1)N1CCC(F)(F)[C@@H](c2ccc(=O)[nH]c2)C1 [Example 9, (S)-N-(5-(cyclopentyloxy)pyridin-2-yl)-2-((S)-4,4-difluoro-3-(6-oxo-1,6-dihydropyridin-3-yl)piperidin-1-yl)propanamide]
15 | 0.01 to 0.1 µM | C[C@@H](C(=O)Nc1ccc(Oc2ccc(F)cc2F)cn1)N1CCC(F)(F)C(c2ccnc(CN3CC(F)(F)C3)c2)C1 (mixture of isomers) [Example 270, (2S)-2-(3-(2-((3,3-difluoroazetidin-1-yl)methyl)pyridin-4-yl)-4,4-difluoropiperidin-1-yl)-N-(5-(2,4-difluorophenoxy)pyridin-2-yl)propanamide]
16 | ≤ 0.01 µM | C[C@@H](C(=O)Nc1ccc(Oc2ccc(F)cn2)cn1)[C@H]1CCC(F)(F)[C@@H](c2cc[n+]([O-])cc2)C1 [Example 294, 4-((1R,5S)-2,2-difluoro-5-((R)-1-((5-((5-fluoropyridin-2-yl)oxy)pyridin-2-yl)amino)-1-oxopropan-2-yl)cyclohexyl)pyridine 1-oxide]
17 | 0.1 to 3.16 µM | C[C@@H](C(=O)Nc1ccc(Oc2ccncn2)cn1)N1CCC(F)(F)[C@@H](c2ccc(=O)[nH]c2)C1 [Example 74, (S)-2-((S)-4,4-difluoro-3-(6-oxo-1,6-dihydropyridin-3-yl)piperidin-1-yl)-N-(5-(pyrimidin-4-yloxy)pyridin-2-yl)propanamide]
18 | 0.1 to 3.16 µM | CC(C)Oc1ccc(NC(=O)C(C)N2CCC(F)(F)[C@@H](c3ccc(=O)[nH]c3)C2)nc1 (stereo partly drawn) [Example 26, 2-((S)-4,4-difluoro-3-(6-oxo-1,6-dihydropyridin-3-yl)piperidin-1-yl)-N-(5-isopropoxy-pyridin-2-yl)propanamide]
19 | ≤ 0.01 µM | C[C@@H](C(=O)Nc1ccc(Oc2cc(F)c(F)cc2F)cn1)N1CCC(F)(F)[C@@H](c2cc[n+]([O-])cc2)C1 [Example 124, 4-((S)-4,4-difluoro-1-((S)-1-oxo-1-((5-(2,4,5-trifluorophenoxy)pyridin-2-yl)amino)propan-2-yl)piperidin-3-yl)pyridine 1-oxide]
20 | 0.1 to 3.16 µM | C[C@@H](C(=O)Nc1ccc(Cl)cn1)N1CCC[C@@H](c2c[nH]c(=O)c(N)n2)C1 (single isomer, unassigned) [Example 174]
21 | 0.01 to 0.1 µM | C[C@@H](C(=O)Nc1cnc(Oc2ccccc2)cn1)N1CCC(F)(F)[C@@H](c2c[nH]c(=O)c(CN)c2)C1 [Example 207, (S)-2-((S)-3-(5-(aminomethyl)-6-oxo-1,6-dihydropyridin-3-yl)-4,4-difluoropiperidin-1-yl)-N-(5-phenoxypyrazin-2-yl)propanamide]
22 | 0.1 to 3.16 µM | C[C@@H](C(=O)Nc1ccc(F)cn1)N1CCC(F)(F)C(c2cc(CO)c(=O)n(CC(F)(F)F)c2)C1 (stereo partly drawn) [Example 199, (2S)-2-(4,4-difluoro-3-(5-(hydroxymethyl)-6-oxo-1-(2,2,2-trifluoroethyl)-1,6-dihydropyridin-3-yl)piperidin-1-yl)-N-(5-fluoropyridin-2-yl)propanamide]
23 | 0.1 to 3.16 µM | C[C@@H](C(=O)Nc1ccc(C2CCC2)cn1)N1CCC(F)(F)[C@@H](c2ccc(=O)[nH]c2)C1 [Example 18, (S)-N-(5-cyclobutylpyridin-2-yl)-2-((S)-4,4-difluoro-3-(6-oxo-1,6-dihydropyridin-3-yl)piperidin-1-yl)propanamide]
24 | 0.1 to 3.16 µM | CC(C(=O)Nc1ccc(-c2cccs2)cn1)N1CCC(F)(F)[C@@H](c2ccc(=O)[nH]c2)C1 (stereo partly drawn) [Example 50, 2-((S)-4,4-difluoro-3-(6-oxo-1,6-dihydropyridin-3-yl)piperidin-1-yl)-N-(5-(thiophen-2-yl)pyridin-2-yl)propanamide]
25 | ≤ 0.01 µM | C[C@@H](C(=O)Nc1ccc(Oc2ccc(F)cc2)cn1)N1CCC(F)(F)[C@@H](c2c[nH]c(=O)c([C@H](N)C(F)(F)F)c2)C1 (single isomer, unassigned) [Example 233]
26 | ≤ 0.01 µM | C[C@@H](C(=O)Nc1cnc(Oc2c(F)cccc2F)cn1)N1CCC(F)(F)[C@@H](c2cc[n+]([O-])cc2)C1 [Example 121, 4-((S)-1-((S)-1-((5-(2,6-difluorophenoxy)pyrazin-2-yl)amino)-1-oxopropan-2-yl)-4,4-difluoropiperidin-3-yl)pyridine 1-oxide]
27 | ≤ 0.01 µM | C[C@@H](C(=O)Nc1ccc(Oc2ccc(F)cc2F)cn1)N1CCC(F)(F)[C@@H](c2c[nH]c(=O)c(CN3CCC(F)(F)CC3)c2)C1 [Example 240, (S)-N-(5-(2,4-difluorophenoxy)pyridin-2-yl)-2-((S)-3-(5-((4,4-difluoropiperidin-1-yl)methyl)-6-oxo-1,6-dihydropyridin-3-yl)-4,4-difluoropiperidin-1-yl)propanamide]
28 | 0.1 to 3.16 µM | C[C@@H](C(=O)Nc1ccc(Oc2cccnc2)cn1)N1CCC(F)(F)[C@@H](c2ccc(=O)[nH]c2)C1 [Example 59, (S)-2-((S)-4,4-difluoro-3-(6-oxo-1,6-dihydropyridin-3-yl)piperidin-1-yl)-N-(5-(pyridin-3-yloxy)pyridin-2-yl)propanamide]
29 | 0.1 to 3.16 µM | C[C@@H](C(=O)Nc1ccc(OCC2CC2)nn1)N1CCC(F)(F)[C@@H](c2cc[n+]([O-])cc2)C1 (single isomer, unassigned) [Example 109]
30 | 0.01 to 0.1 µM | C[C@@H](C(=O)Nc1ccc(C2CCCC2)cn1)N1CCC(F)(F)[C@@H](c2ccc(=O)[nH]c2)C1 [Example 14, (S)-N-(5-cyclopentyl-pyridin-2-yl)-2-((S)-4,4-difluoro-3-(6-oxo-1,6-dihydropyridin-3-yl)piperidin-1-yl)propanamide]
